Measured values from patent US7253212B2, “Retinol derivative and cosmetic composition comprising the same” (Coreana Cosmetics Co., Ltd., priority 2002, dated 2007).

Tests used:
[1] = Scavenging effect on free radical (DPPH); conditions: 30 min, absorbance 520 nm
Description: Evaluation of scavenging effect on free radical was performed using DPPH (1,1-diphenyl-2-picryl-hydrazyl, Sigma-Aldrich). 100 μl of each of the substances (the derivative of this invention, retinol and ascorbic acid) diluted to a suitable concentration and 100 μl of 400 μM DPPH solution were consequently added to a 96-well microplate and agitation was performed, followed by reaction for 30 min. at room temperature. Then, absorbance at 520 nm was measured using spectrophotometer. Control contains 100 μl of ethanol in place of the substance to be tested. The scavenging effect on free radical was calculated as following formula: scavenging effect on free radical (%)=100−{(absorbance of sample solution/absorbance of control)×100}

tyrosinase = assay: Inhibitory effect on tyrosinase activity; type: biochemical
Description: A tyrosinase used herein was purchased from Sigma (U.S.A.). Tyrosine as substrate was used as a solution (0.1 mg/ml) dissolved in 0.05 M sodium phosphate buffer (pH 6.8).
0.5 ml of tyrosine solution was placed in a test tube and 0.5 ml of sample solution to be evaluated was added. The test tube was allowed to stand in incubator for 10 min. at 37° C. and then 0.5 ml of tyrosinase (200 U/ml) was added. The reaction was carried out for 10 min at 37° C. As a control group, 0.5 ml of buffer solution was added instead of the sample to be evaluated. The reaction was quenched by placing the test tube on ice and the absorbance of the resultant was measured at 475 nm with spectrophotometer. The inhibitory effect on tyrosinase activity was determined by the equation: inhibition rate on tyrosinase activity (%)=100−{(absorbance of sample/absorbance of control)×100}

Human normal fibroblasts = assay: Effect on collagen biosynthesis (procollagen type C-peptide kit); type: cell-based; conditions: 48 hours treatment
Description: Human normal fibroblasts (ATCC) were inoculated (2×10^4 cells/well) on 96-well microplate containing DMEM supplemented with FBS and incubated for 24 hours at 37° C. After incubation, the medium in microplate was replaced with fresh DMEM without serum comprising the derivative of this invention, retinol or ascorbic acid and then additional incubation for 48 hours was carried out. Control was not treated with any of the compounds described above. Following incubation, each well was rinsed, fresh DMEM without serum was supplied and then additional incubation for 24 hours was performed. Then, procollagen type C-peptide obtained from the supernatant of each well was measured using a kit purchased from Takara Co. (Japan) and the measured values were converted to ng/2×10^4 cells, which indicate the amount of collagen newly generated.

Inhibition rate on tyrosinase activity (%) (tyrosinase; sample conc. 10 μg/ml) | Inhibition rate on tyrosinase activity (%) (tyrosinase; sample conc. 20 μg/ml) | Inhibition rate on tyrosinase activity (%) (tyrosinase; sample conc. 50 μg/ml) | Inhibition rate on tyrosinase activity (%) (tyrosinase; sample conc. 100 μg/ml) | Inhibition rate on tyrosinase activity (%) (tyrosinase; sample conc. 200 μg/ml) | Inhibition rate on tyrosinase activity (%) (tyrosinase; sample conc. 500 μg/ml) | SMILES | Scavenging effect on free radical (%) ([1]; concentration 0.5 mM) | Scavenging effect on free radical (%) ([1]; concentration 1 mM) | Amount of Collagen Newly Generated (Human normal fibroblasts; addition amount 50 μg) [ng/2 × 10^4 cells] | Amount of Collagen Newly Generated (Human normal fibroblasts; addition amount 100 μg) [ng/2 × 10^4 cells] | Amount of Collagen Newly Generated (Human normal fibroblasts; addition amount 200 μg) [ng/2 × 10^4 cells]
8.1 | 10.7 | 13.8 | 32.9 | 47.1 | 78.8 | CC1=C(/C=C/C(C)=C/C=C/C(C)=C/COC(=O)COC2=C(O)C(=O)OC2C(O)CO)C(C)(C)CCC1 (stereo not drawn) [Derivative of this invention] | 95.7 | 96.4 | 215 | 290 | 349
0.6 | 1.1 | 3.2 | 3.9 | 5.6 | 9.2 | CC1=C(/C=C/C(C)=C/C=C/C(C)=C/CO)C(C)(C)CCC1 [Retinol] | 0.4 | 1.6 | 174 | 233 | 286
5.1 | 9.8 | 13.2 | 22.5 | 34.8 | 62.4 | O=C1O[C@H]([C@@H](O)CO)C(O)=C1O [L-ascorbic acid] | 91.2 | 91.9 | 198 | 267 | 314
